In one data set the target is PKM2 (Homo sapiens, UniProt P14618). The following applies: cited from earlier work; for AC50: read-out: AC50 (PKM2 activation); for selectivity for PKM2 versus other pyruvate kinase isozymes: versus PKM1, PKR and PKL.
For data set [1], the system named is orthotopically growing human glioblastoma. As to conditions: mouse models; cited from earlier work.
A short description of data set [2]: In vitro serum stability, human serum. In kind it is in vitro ADME. As to conditions: up to 120 min. On the procedure: (§1) In Vitro Serum Stability Studies: Human and mouse serum (Sigma-Aldrich) were centrifuged at 4° C., with speed of 13,000 rpm for 10 min. Formulated [^18F]DASA-23 (130-150 μCi, 20 μl volume) was added to 330 μl of supernatant. For control, the same volume of radiolabeled compound in 330 μl PBS was used. After vortexing the radiolabeled mixtures, 70 μl aliquots were incubated at 37° C. At predetermined time points (0, 15, 30, 60, and 120 min), 140 μl of ice-cold acetonitrile was added to corresponding samples to stop metabolism. After vortexing and centrifuging samples (10 min, 13,000 rpm), the supernatants were analyzed by analytical HPLC using the same conditions described above.

The nature of data set [3]: In vitro serum stability, mouse serum. In kind it is in vitro ADME. As to conditions: up to 120 min. How it is done:
as §1

Data set [4] relates to orthotopic U87 GBM tumors. Briefly: PET/CT/MR imaging and ex vivo autoradiography of mice bearing orthotopic U87 tumors. It counts as in vivo, mouse. On the procedure: FIG. 10 illustrates non-invasive imaging of mice bearing orthotopic U87 tumor showing representative T2-weighted MR image and fused PET/CT/MR (10 to 30 min summed activity) of a mouse head bearing an orthotopically grown U87 tumor, white arrows indicate the tumor.
FIG. 11 illustrates non-invasive imaging of mice bearing orthotopic U87 tumor showing an ex vivo autoradiography of coronal mouse brain sections.
FIG. 12B illustrates non-invasive imaging of mice bearing orthotopic U87 tumor showing orthotopic U87 tumor and corresponding contralateral normal brain TAC taken from dynamic [^18F]DASA-23 PET/CT images. Data are means±SD (n=6 animals), ***p<0.001.
PET/MR co-registration confirmed precise correspondence of the [^18F]DASA-23 signal with the location of the intracranial tumors, further confirmed ex vivo by autoradiography.

A further data set relates to HeLa cells. The data set is described as follows: Cell uptake of [18F]DASA-23 in HeLa cells. It counts as cell-based, human. How it is done: Cell Uptake Studies: HeLa cells (0.5×106) were plated into 6-well plates overnight before [^18F]DASA-23 uptake analysis. On the day of the experiment, fresh, prewarmed DMEM containing 25 μCi of [^18F]DASA-23 was added to individual wells (1 ml per well). Cells were incubated with [^18F]DASA-23 at 37° C. and 5% CO2 over a 60 min time course. […] At the specified time points, incubation plates were put on ice, washed with ice-cold phosphate-buffered saline (PBS) (3×500 μl), and lysed in radioimmunoprecipitation assay buffer (Thermo Fisher Scientific Inc.; 500 μl). A portion of the cell lysates (200 μl) were used to determine the amount of decay-corrected radioactivity on a gamma counter (Cobra II Auto-Gamma Counter; Packard Biosciences Co.). The remaining cell lysate was used post radioactive decay for determination of protein concentration using a bicinchoninic acid (BCA) assay (Thermo Fisher Scientific Inc.). Additionally, 10 μl standards from the solution of [^18F]DASA-23 in DMEM (25 μCi/mi) were counted to quantitate the percentage of radiotracer uptake. For efflux studies, HeLa cells were incubated with [^18F]DASA-23 for 60 min and then washed with room temperature Hanks' buffered salt solution (3×500 μl); a subsequent incubation was then completed at 37° C. in fresh, prewarmed radiotracer-free DMEM. At the specified times, samples were processed as described above.

A word on the AC50: it is the concentration giving half of the maximal activity seen.

PKM2, sequence (P14618 whole entry, species assumed): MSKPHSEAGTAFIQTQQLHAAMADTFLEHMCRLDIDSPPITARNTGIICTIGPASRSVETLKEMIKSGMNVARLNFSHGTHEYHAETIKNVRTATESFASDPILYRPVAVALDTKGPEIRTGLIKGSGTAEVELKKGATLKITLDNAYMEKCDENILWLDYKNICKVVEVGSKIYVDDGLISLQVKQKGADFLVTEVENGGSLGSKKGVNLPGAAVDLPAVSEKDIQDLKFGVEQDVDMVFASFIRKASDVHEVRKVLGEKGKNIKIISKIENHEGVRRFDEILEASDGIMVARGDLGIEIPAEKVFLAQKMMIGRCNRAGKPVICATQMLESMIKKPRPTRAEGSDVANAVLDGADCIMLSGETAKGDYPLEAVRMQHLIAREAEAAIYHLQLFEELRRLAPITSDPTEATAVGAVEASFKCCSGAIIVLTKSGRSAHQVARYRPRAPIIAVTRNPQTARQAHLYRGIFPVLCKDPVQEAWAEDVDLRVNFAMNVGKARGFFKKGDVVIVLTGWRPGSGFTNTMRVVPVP

Take `COc1ccc(S(=O)(=O)N2CCN(S(=O)(=O)c3c(F)cccc3F)CC2)cc1` [DASA-23, reference compound]: at PKM2, the half-maximal activity concentration (AC50) was 90 nM and the “selectivity for PKM2 versus other pyruvate kinase isozymes” value is “selectivity for PKM2 relative to other PK enzymes”.

As for `[11CH3]Oc1ccc(S(=O)(=O)N2CCN(S(=O)(=O)c3c(F)cccc3F)CC2)cc1` [[^11C]DASA-23], the “detection of PKM2-expressing tumor in vivo” value in data set [1] is listed as “successfully detected orthotopically growing human glioblastoma”.

As to `COc1ccc(S(=O)(=O)N2CCN(S(=O)(=O)c3c(F)cccc3[18F])CC2)cc1` [[^18F]DASA-23, 1-((2-Fluoro-6-(Fluoro-^18F)Phenyl)Sulfonyl)-4-((4-Methoxyphenyl)Sulfonyl)Piperazine], at PKM2, the half-maximal activity concentration (AC50) is 90 nM. In addition, the “selectivity for PKM2 versus other pyruvate kinase isozymes” value at PKM2 is “selective activation of PKM2”. Moreover, the entries for the “percentage of intact tracer” value in data set [2] (37° C.) and in data set [3] (37° C.) were 95.7% and 95.8%, respectively. The “serum stability” value in data set [2] and in data set [3] was “stable” throughout. In addition, the “tumor delineation by dynamic PET imaging” value in data set [4] (orthotopic U87 GBM tumors vs surrounding normal brain, n=6 mice) was “clearly delineated from the surrounding normal brain tissue”. Besides, the “tumor uptake in blocking study (autoradiography)” value in data set [4] (pre-treatment with TEPP-46 (50 mg/kg) 60 min prior to tracer) is “dramatic reduction in tumor uptake”. The figures for the cell uptake in the data set on HeLa cells (30 min) and with HeLa cells (60 min) were 11.4±2.2 % of total tracer/mg protein and 21.0±2.0 % of total tracer/mg protein, respectively.

(Values after patent publication US10675366B2, “Imaging tumor glycolysis by non-invasive measurement of pyruvate kinase M2” (The Board of Trustees of the Leland Stanford Junior …, priority 2016, dated 2020).)
